# PMC11191095, “QSAR Reveals Decreased Lipophilicity of Polar Residues Determines the Selectivity of Antimicrobial Peptide Activity” (ACS Omega, 2024)
# Where a SMILES comes first, the peptide text is derived from it.
# Legend:
# [1] = test system: C. auris TDG 1912; assay: microbe, parasite or virus in culture; type: cell-based, Candida auris; conditions: C. auris TDG 1912
# Procedure, shortened: (§1)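 Peptides 128→2 μg/mL, 2-fold series; inoculum ~5 × 10^5 CFU/mL from overnight culture (OD600 0.01, mixed 1:1). MHB non-cation-adjusted for bacteria, RPMI 1640 + 2% glucose for fungi. 37 °C, 20 h, OD600. MIC50/MIC90 at 50%/90% inhibition; n ≥ 3.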
# [2] = test system: HaCat cell line; assay: In vitro HaCat cytotoxicity (MTT); type: cell-based, human; conditions: 21 h exposure, OD570, relative to untreated control
# Procedure, shortened: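 HaCat keratinocytes were first screened with peptide at 256 μg/mL for 21 h at 37 °C, and a dose-response was run only when cytotoxicity reached p < 0.0001. Viability was read by MTT (3 h, OD570) relative to untreated control, and LC50 was taken from the dose-response curves.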
# [3] = test system: P. aeruginosa PAO1; assay: microbe, parasite or virus in culture; type: cell-based, Pseudomonas aeruginosa; conditions: P. aeruginosa PAO1 (S)
# Procedure, shortened: as §1
# [4] = RP-HPLC ElutionTime as indicator of hydrophobicity; type: physicochemical; conditions: indicator of overall hydrophobicity; semipreparative RP-HPLC, Waters SymmetryPrep C8, water/ACN gradient with 0.1% TFA, 8 mL/min, 25 °C, 254 nm
# Description: Crude peptides, made up to 10 mg/mL in 0.1% TFA (v/v) in ddH2O, were subjected to preparative RP-HPLC purification on an Agilent 1100 system, with elution in gradient. A gradient program at a flow rate of 8 mL/min and column temperature of 25 °C was used to achieve elution with solvent A (0.1% trifluoroacetic acid (TFA) in water (v/v)) and solvent B (0.1% TFA in 100% acetonitrile (ACN) (v/v)). The elution program was as follows: (1) At 0–73 min, 100% solvent A to 0% solvent B; (2) at 73–77 min, 40% solvent A to 60% solvent B; (3) at 77–93 min, 10% solvent A to 90% solvent B; (4) at 93–105 min, 100% solvent A to 0% solvent B. Data collected were the retention time of the major fraction for each peptide in minutes as RP-HPLC ElutionTime (ElutionTime). Absorbance was detected at 254 nm, and fractions were collected manually. The fractions collected were spun in a speed-vac to remove ACN and the contents lyophilized. After freeze-drying for 24 h the peptides were dissolved in 10% (v/v) acetic acid before being lyophilized for a second time and then stored at −20 °C.
# Molecular descriptors used in the QSAR analysis included: charge, sequence length, overall lipophilicity (L), lipophilicity contributed by the polar or nonpolar residues (LP and LN), summation of the side chain surface areas of the total peptide, polar or nonpolar residues (SCSA, SCSAP, and SCSAN), the molecular weight of the entire peptide, polar or nonpolar residues (Mw, MwP, and MwN), count of small lipophilic residues (CSL) or aromatic residues (CAR), the total number of hydrogen bond donor and acceptor centers (HBtot, HBdon, and HBacc), the total number of rotatable bonds (#RotBonds) and various amphipathicity descriptors (LP/L, LP/LN, L/LN, Q/L, Q/LN, SCSAP/SCSAN, MwP/MwN, Q/CSL, and Q/CAR) (Suppl. Table S1). Experimentally determined characteristics included ElutionTime as an indicator of overall peptide hydrophobicity and the CD structure of each peptide determined in POPG/POPE lipids representing Gram-negative membranes, POPG lipids for Gram-positive membranes, and SDS micelles for fungal membranes. AMPs with an α-helical structure were labeled 4, β-sheets were labeled 3, β-turns and mixed conformations were labeled 2, and disordered structures were labeled 1.
structure (smiles),measurement,setting,value
C[C@H](NC(=O)CNC(=O)[C@H](CCCCN)NC(=O)[C@@H](N)CS)C(=O)N[C@@H](Cc1ccccc1)C(=O)N[C@@H](CCCCN)C(=O)N[C@@H](CCC(N)=O)C(=O)N[C@H](C(=O)N[C@@H](CS)C(=O)N[C@@H](CCCCN)C(=O)N[C@@H](CS)C(=O)N[C@@H](Cc1ccc(O)cc1)C(N)=O)[C@@H](C)O [Os(11-22)a] (H-CKGAFKQTCKCY-NH2; N-terminus assumed),Modal MIC50,"[1]; 50% growth inhibition, RPMI 1640 + 2% glucose, 37 °C, 20 h, OD600",> 128 µg/mL
same,Modal MIC90,"[1]; 90% growth inhibition, RPMI 1640 + 2% glucose, 37 °C, 20 h, OD600",> 128 µg/mL
same,Modal MIC50,[1]; shown in µM,> 91.7 µM
same,Modal MIC90,[1]; shown in µM,> 91.7 µM
same,% HaCat cell death at initial screening (256μg/mL) ± SD,[2],59.5 ±13.9%
same,% HaCat cell death at initial screening (256μg/mL) ± SD,[2]; listed as Os(11–22)a,59.5%
same,Modal MIC,"[3]; MHB, 37 °C, 20 h, OD600, min. three biological repeats",> 128 µg/mL
same,Modal MIC,[3]; shown in µM,> 91.7 µM
same,ElutionTime (RP-HPLC retention time of major fraction),[4],"21,3 min"
